Laboratory results as given in patent publication US12473339B2, “Acylated glucagon analogues” (Zealand Pharma A/S, priority 2013, dated 2025).
*1 amine or outer side, *2 acyl side, *3 side chain or, on linkers, in order; H or OH if unused. Where a SMILES comes first, the peptide text is derived from it. Side-chain parts run from the residue outwards. [ ]: non-standard residue; d: D form. The star is where a group is joined. C18 diacid = O=C(O)CCCCCCCCCCCCCCCCC(=O)*; γGlu = O=C(O)[C@H](CCC(=O)[*:2])N[*:1]; AEEA = NCCOCCOCC(=O)O; Aib = CC(C)(N)C(=O)O

target: T1, human glucagon-like peptide 1 receptor (GLP-1R) (Homo sapiens, UniProt P43220); assay: GLP-1 receptor efficacy assay (cAMP AlphaScreen, CHO cells); assay type: cell-based; conditions: EC50 [GLP-1R] / EC50 [Glucagon-R], human receptors in CHO-K1
T1 construct: expressed in transfected cells
T1 sequence (P43220 24-463): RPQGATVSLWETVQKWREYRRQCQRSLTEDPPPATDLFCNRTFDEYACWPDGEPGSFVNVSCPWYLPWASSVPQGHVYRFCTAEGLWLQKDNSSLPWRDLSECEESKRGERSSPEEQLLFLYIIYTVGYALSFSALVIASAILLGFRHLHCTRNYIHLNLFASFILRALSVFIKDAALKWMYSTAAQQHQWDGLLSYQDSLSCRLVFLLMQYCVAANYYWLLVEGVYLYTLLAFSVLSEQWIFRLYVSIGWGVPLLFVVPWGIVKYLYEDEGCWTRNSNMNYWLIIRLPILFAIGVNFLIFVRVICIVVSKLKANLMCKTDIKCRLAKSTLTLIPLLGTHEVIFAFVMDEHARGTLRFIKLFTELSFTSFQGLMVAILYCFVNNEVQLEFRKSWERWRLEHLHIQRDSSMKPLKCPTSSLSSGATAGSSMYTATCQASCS
From the text: The cDNA encoding either the human glucagon receptor (Glucagon-R) (primary accession number P47871) or the human glucagon-like peptide 1 receptor (GLP-1R) (primary accession number P43220) were synthesized and cloned into a mammalian expression vector containing a Zeocin resistance marker.
The mammalian expression vectors encoding the Glucagon-R or the GLP-1-R were transfected into Chinese hamster ovary (CHO) cells by the Attractene method. Stably expressing clones were obtained by Zeocin selection (250 μg/mL) upon limited dilution of cells resistant to the selection pressure. Glucagon-R and GLP-1-R cell clones expressing were picked, propagated and tested in the Glucagon-R and GLP-1-R efficacy assays as described below. One Glucagon-R expressing clone and one GLP-1-R expressing clone were chosen for compound profiling.
CHO cells expressing the human Glucagon-R, or human GLP-1-R were seeded 24 hours prior to the assay at 30,000 cells per well in 96-well microtiter plates in culture in 100 μl growth medium. On the day of analysis, growth medium was removed and the cells were washed once with 200 μl of assay buffer (Krebs-Ringer-buffer—KRBH). The buffer was removed and the cells were incubated for 15 min at room temperature in 10 μl KRBH (KRBH+10 mM HEPES, 5 mM NaHCO3, 0.1% (V/V) BSA) with 0.1 mM IBMX in deionized water containing increasing concentrations of test peptides. The reaction was stopped by the addition of lysis buffer (0.1% w/v BSA, 5 mM HEPES, 0.3% v/v Tween-20). After cell lysis for 10 min at room temperature, lysates were transferred to 384-well plates and 10 μl of acceptor/donorbead mixture as contained in the AlphaScreen™ cAMP Functional Assay Kit was added. After one hour of incubation at room temperature in the dark, the cAMP content was determined applying the AlphaScreen™ cAMP Functional Assay Kit from Perkin-Elmer according to manufacturer instructions. EC50 and relative efficacies compared to reference compounds (glucagon and GLP-1) were calculated applying computer aided curve fitting. The GLP-1/glucagon ratio is calculated as defined earlier.

Compared with `CC[C@H](C)[C@H](NC(=O)[C@H](Cc1ccccc1)NC(=O)[C@H](CC(=O)O)NC(=O)[C@H](CCCCN)NC(=O)[C@H](C)NC(=O)[C@H](C)NC(=O)[C@H](CCCNC(=N)N)NC(=O)[C@H](CCC(=O)O)NC(=O)[C@H](CC(=O)O)NC(=O)[C@H](CC(C)C)NC(=O)[C@H](Cc1ccc(O)cc1)NC(=O)[C@H](CCCCN)NC(=O)[C@H](CO)NC(=O)[C@H](Cc1ccc(O)cc1)NC(=O)[C@H](CC(=O)O)NC(=O)[C@H](CO)NC(=O)[C@@H](NC(=O)[C@H](Cc1ccccc1)NC(=O)[C@@H](NC(=O)CNC(=O)[C@H](CCC(N)=O)NC(=O)C1(NC(=O)[C@@H](N)Cc2c[nH]cn2)CCC1)[C@@H](C)O)[C@@H](C)O)C(=O)N[C@@H](CCC(=O)O)C(=O)N[C@@H](Cc1c[nH]c2ccccc12)C(=O)N[C@@H](CC(C)C)C(=O)N[C@@H](CCC(=O)O)C(=O)N[C@@H](CCCCNC(=O)CNC(=O)CNC(=O)[C@H](CO)NC(=O)CNC(=O)[C@H](CO)NC(=O)CNC(=O)CC[C@H](NC(=O)CCCCCCCCCCCCCCCCC(=O)O)C(=O)O)C(=O)N[C@@H](C)C(N)=O` [Compound 15], `CC[C@H](C)[C@H](NC(=O)[C@H](Cc1ccccc1)NC(=O)[C@H](CC(=O)O)NC(=O)[C@H](CCCCN)NC(=O)[C@H](C)NC(=O)[C@H](C)NC(=O)[C@H](CCCNC(=N)N)NC(=O)[C@H](CCCCNC(=O)CNC(=O)CNC(=O)[C@H](CO)NC(=O)CNC(=O)[C@H](CO)NC(=O)CNC(=O)CC[C@H](NC(=O)CCCCCCCCCCCCCCCCC(=O)O)C(=O)O)NC(=O)[C@H](CC(=O)O)NC(=O)[C@H](CC(C)C)NC(=O)[C@H](Cc1ccc(O)cc1)NC(=O)[C@H](CCCCN)NC(=O)[C@H](CO)NC(=O)[C@H](Cc1ccc(O)cc1)NC(=O)[C@H](CC(=O)O)NC(=O)[C@H](CO)NC(=O)[C@@H](NC(=O)[C@H](Cc1ccccc1)NC(=O)[C@@H](NC(=O)CNC(=O)[C@H](CCC(N)=O)NC(=O)C1(NC(=O)[C@@H](N)Cc2c[nH]cn2)CCC1)[C@@H](C)O)[C@@H](C)O)C(=O)N[C@@H](CCC(=O)O)C(=O)N[C@@H](Cc1c[nH]c2ccccc12)C(=O)N[C@@H](CC(C)C)C(=O)N[C@@H](CCC(=O)O)C(=O)N[C@@H](CO)C(=O)N[C@@H](C)C(N)=O` [Compound 7, H-H-Ac4c-QGTFTSDYSKYLD-K([17-carboxy-heptadecanoyl]-isoGlu-GSGSGG)-RAAKDFIEWLESA-NH2] is higher in “Ratio GLP-1/Glucagon” value: 0.65 for the first, 8.82 for the second.

Going from `CC[C@H](C)[C@H](NC(=O)[C@H](Cc1ccccc1)NC(=O)[C@H](CC(=O)O)NC(=O)[C@H](CCCCN)NC(=O)[C@H](C)NC(=O)[C@H](C)NC(=O)[C@H](CCCNC(=N)N)NC(=O)[C@H](CCC(=O)O)NC(=O)[C@H](CC(=O)O)NC(=O)[C@H](CC(C)C)NC(=O)[C@H](Cc1ccc(O)cc1)NC(=O)[C@H](CCCCN)NC(=O)[C@H](CO)NC(=O)[C@H](Cc1ccc(O)cc1)NC(=O)[C@H](CC(=O)O)NC(=O)[C@H](CO)NC(=O)[C@@H](NC(=O)[C@H](Cc1ccccc1)NC(=O)[C@@H](NC(=O)CNC(=O)[C@H](CCC(N)=O)NC(=O)C1(NC(=O)[C@@H](N)Cc2c[nH]cn2)CCC1)[C@@H](C)O)[C@@H](C)O)C(=O)N[C@@H](CCCCNC(=O)CNC(=O)CNC(=O)[C@H](CO)NC(=O)CNC(=O)[C@H](CO)NC(=O)CNC(=O)CC[C@H](NC(=O)CCCCCCCCCCCCCCCCC(=O)O)C(=O)O)C(=O)N[C@@H](Cc1c[nH]c2ccccc12)C(=O)N[C@@H](CC(C)C)C(=O)N[C@@H](CCC(=O)O)C(=O)N[C@@H](CO)C(=O)N[C@@H](C)C(N)=O` [Compound 13] to `CC[C@H](C)[C@H](NC(=O)[C@H](Cc1ccccc1)NC(=O)[C@H](CC(=O)O)NC(=O)[C@H](CCCCN)NC(=O)[C@H](C)NC(=O)[C@H](C)NC(=O)[C@H](CCCNC(=N)N)NC(=O)[C@H](CCCCNC(=O)CNC(=O)CNC(=O)[C@H](CO)NC(=O)CNC(=O)[C@H](CO)NC(=O)CNC(=O)CC[C@H](NC(=O)CCCCCCCCCCCCCCCCC(=O)O)C(=O)O)NC(=O)[C@H](CCC(=O)O)NC(=O)[C@H](CC(C)C)NC(=O)[C@H](Cc1ccc(O)cc1)NC(=O)[C@H](CCCCN)NC(=O)[C@H](CO)NC(=O)[C@H](Cc1ccc(O)cc1)NC(=O)[C@H](CC(=O)O)NC(=O)[C@H](CO)NC(=O)[C@@H](NC(=O)[C@H](Cc1ccccc1)NC(=O)[C@@H](NC(=O)CNC(=O)[C@H](CCC(N)=O)NC(=O)C(C)(C)NC(=O)[C@@H](N)Cc1c[nH]cn1)[C@@H](C)O)[C@@H](C)O)C(=O)N[C@@H](CCC(=O)O)C(=O)N[C@@H](Cc1c[nH]c2ccccc12)C(=O)N[C@@H](CC(C)C)C(=O)N[C@@H](CCC(=O)O)C(=O)N[C@@H](CO)C(=O)N[C@@H](C)C(N)=O` [Compound 6, H-H-Aib-QGTFTSDYSKYLE-K([17-carboxy-heptadecanoyl]-isoGlu-GSGSGG)-RAAKDFIEWLESA-NH2], the “Ratio GLP-1/Glucagon” value rises from 0.63 to 3.25.

Compared with `CC[C@H](C)[C@H](NC(=O)[C@H](Cc1ccccc1)NC(=O)[C@H](CC(=O)O)NC(=O)[C@H](Cc1c[nH]cn1)NC(=O)[C@H](C)NC(=O)[C@H](C)NC(=O)[C@H](CCCNC(=N)N)NC(=O)[C@H](CCCCNC(=O)COCCOCCNC(=O)COCCOCCNC(=O)CC[C@H](NC(=O)CCCCCCCCCCCCCCCCC(=O)O)C(=O)O)NC(=O)[C@H](CCC(=O)O)NC(=O)[C@H](CC(C)C)NC(=O)[C@H](Cc1ccc(O)cc1)NC(=O)[C@H](CCCCN)NC(=O)[C@H](CO)NC(=O)[C@H](Cc1ccc(O)cc1)NC(=O)[C@H](CC(=O)O)NC(=O)[C@H](CO)NC(=O)[C@@H](NC(=O)[C@H](Cc1ccccc1)NC(=O)[C@@H](NC(=O)CNC(=O)[C@H](CCC(N)=O)NC(=O)C(C)(C)NC(=O)[C@@H](N)Cc1c[nH]cn1)[C@@H](C)O)[C@@H](C)O)C(=O)N[C@@H](CCC(=O)O)C(=O)N[C@@H](Cc1c[nH]c2ccccc12)C(=O)N[C@@H](CC(C)C)C(=O)N[C@@H](CCC(=O)O)C(=O)N[C@@H](CO)C(=O)N[C@@H](C)C(N)=O` [Compound 8, H-H-Aib-QGTFTSDYSKYLE-K([17-carboxy-heptadecanoyl]-isoGlu-Peg3-Peg3)-RAAHDFIEWLESA-NH2] (H-H[Aib]QGTFTSDYSKYLEK([AEEA-AEEA-γGlu-C18 diacid])RAAHDFIEWLESA-NH2), `CC[C@H](C)[C@H](NC(=O)[C@H](Cc1ccccc1)NC(=O)[C@H](CC(=O)O)NC(=O)[C@H](CCCCN)NC(=O)[C@H](C)NC(=O)[C@H](C)NC(=O)[C@H](CCCCNC(=O)CC[C@H](NC(=O)CCCCCCCCCCCCCCCCC(=O)O)C(=O)O)NC(=O)[C@H](CCC(=O)O)NC(=O)[C@H](CC(=O)O)NC(=O)[C@H](CC(C)C)NC(=O)[C@H](Cc1ccc(O)cc1)NC(=O)[C@H](CCCCN)NC(=O)[C@H](CO)NC(=O)[C@H](Cc1ccc(O)cc1)NC(=O)[C@H](CC(=O)O)NC(=O)[C@H](CO)NC(=O)[C@@H](NC(=O)[C@H](Cc1ccccc1)NC(=O)[C@@H](NC(=O)CNC(=O)[C@H](CCC(N)=O)NC(=O)C1(NC(=O)[C@@H](N)Cc2c[nH]cn2)CCC1)[C@@H](C)O)[C@@H](C)O)C(=O)N[C@@H](CCC(=O)O)C(=O)N[C@@H](Cc1c[nH]c2ccccc12)C(=O)N[C@@H](CC(C)C)C(=O)N[C@@H](CCC(=O)O)C(=O)N[C@@H](CO)C(=O)N[C@@H](C)C(N)=O` [Compound 11, H-H-Ac4c-QGTFTSDYSKYLDE-K([17-carboxy-heptadecanoyl]-isoGlu)-AAKDFIEWLESA-NH2] is lower in “Ratio GLP-1/Glucagon” value: 2.58 for the first, 2.00 for the second.

same assay, conditions: cAMP formation, CHO cells expressing human GLP-1-R, 15 min; read-out: EC50 hGLP-1R CHO-K1

Work on `CC[C@H](C)[C@H](NC(=O)[C@H](Cc1ccccc1)NC(=O)[C@H](CC(=O)O)NC(=O)[C@H](CCCCN)NC(=O)[C@H](C)NC(=O)[C@H](C)NC(=O)[C@H](CCCNC(=N)N)NC(=O)[C@H](CCCCNC(=O)CNC(=O)CNC(=O)[C@H](CO)NC(=O)CNC(=O)[C@H](CO)NC(=O)CNC(=O)CC[C@H](NC(=O)CCCCCCCCCCCCCCCCC(=O)O)C(=O)O)NC(=O)[C@H](CC(=O)O)NC(=O)[C@H](CC(C)C)NC(=O)[C@H](Cc1ccc(O)cc1)NC(=O)[C@H](CCCCN)NC(=O)[C@H](CO)NC(=O)[C@H](Cc1ccc(O)cc1)NC(=O)[C@H](CC(=O)O)NC(=O)[C@H](CO)NC(=O)[C@@H](NC(=O)[C@H](Cc1ccccc1)NC(=O)[C@@H](NC(=O)CNC(=O)[C@H](CCC(N)=O)NC(=O)C1(NC(=O)[C@@H](N)Cc2c[nH]cn2)CCC1)[C@@H](C)O)[C@@H](C)O)C(=O)N[C@@H](CCC(=O)O)C(=O)N[C@@H](Cc1c[nH]c2ccccc12)C(=O)N[C@@H](CC(C)C)C(=O)N[C@@H](CCC(=O)O)C(=O)N[C@@H](CO)C(=O)N[C@@H](C)C(N)=O` [Compound 7, H-H-Ac4c-QGTFTSDYSKYLD-K([17-carboxy-heptadecanoyl]-isoGlu-GSGSGG)-RAAKDFIEWLESA-NH2] yielded an EC50 of 0.97 nM.
